Laboratory results taken from patent US9034299B2, “ATF4 inhibitors and their use for neural protection, repair, regeneration, and plasticity” (priority 2007, dated 2015).

Key:
Assay type in all cases: cell-based, mouse
[1] = tested on: embryonic cortical neurons; assay: Cell viability of primary cortical neurons (MTT assay, live/dead assay)
Procedure: (§1) FIG. 1. Amino acid depletion and thapsigargin treatment induce ATF4 and protect embryonic cortical neurons from oxidative stress-induced cell death. (A) Cortical neuronal cultures (1 d in vitro) were treated with a vehicle control (shown as C), 10 mM of the glutamate analogue HCA, 1 μg/ml arginase, 1 μM thapsigargin, 1 μg/ml arginase and 10 mM HCA, or 10 mM HCA and 1 μM thapsigargin. 24 h later, cell viability was determined using the MTT assay. The graph depicts mean (compared with control)±SD calculated from three separate experiments for each group (n=25). *, P<0.05 from HCA-treated cultures by the Kruskal-Wallis test followed by Dunn's multiple comparisons test. (B) Live/dead assay of cortical neuronal cultures (2 d in vitro). Live cells were detected by uptake and trapping of calcein-AM (green fluorescence). […] Bar, 50 μm. […] Cells were harvested at the indicated time points, and nuclear extracts were separated using gel electrophoresis and immunodetected using an antibody against ATF4. YY1 was monitored as a loading control. The immunoblot is a representative example of three experiments.
(§2) FIG. 5. ATF4 has a negative impact on the neuronal glutathione metabolism. (A) ATF4^+/+ (♦) and ATF4^−/− (▴) cortical neurons were treated with 10 mM HCA. At the indicated time points, cells were trypsinized, washed, and pelleted. Reduced glutathione (GSH) was determined in the cell pellets using HPLC electrochemical detection. Data are from three separate cultures, and each data point was measured in duplicate. Graph depicts mean±SD. (B) Schematic overview over cysteine uptake and glutathione synthesis and their inhibition. (C) ATF4^+/+ and ATF4^−/− cortical neurons were treated with a vehicle control (shown as C) or 200 μM BSO. 24 h later, cell viability was determined using the MTT assay. The graph depicts mean (compared with control)±SD calculated from five separate experiments for each group (n=46 ATF4^+/+ and 58 ATF4^−/−). *, P<0.05 from untreated ATF4^+/+ cultures by the Kruskal-Wallis test followed by Dunn's multiple comparisons test. The difference between treated and untreated ATF4^−/− neurons was not significant (n.s.). (D) Live/dead assay displaying untreated and BSO-treated ATF4^+/+ and ATF4^−/− neurons. Bar, 50 μm. […] Cytoplasmic extracts were separated using gel electrophoresis and immunodetected using an antibody against γGCS. Total eIF2α was monitored as a loading control. (F) ATF4^+/+ (♦) and ATF4^−/− (▪) cortical neurons were treated with 200 μM BSO. At the indicated time points, cells were trypsinized, washed, and pelleted. GSH was determined in the cell pellets using HPLC electrochemical detection. Data are from three separate cultures, and each data point was measured in duplicate. Graph depicts mean±SD. (G) ATF4^+/+ cortical neurons were infected with GFP (♦), ATF4WT (▪), and ATF4ΔRK (▴) adenoviruses at an MOI of 100. At the indicated time points after infection, cells were trypsinized, washed, and pelleted. GSH was determined in the cell pellets using HPLC electrochemical detection. The graph depicts mean±SD calculated from three separate experiments for each group, and each data point was measured in duplicate. The value obtained from noninfected neurons was arbitrarily defined as 100%. […] The graph depicts mean (compared with control) ±SD calculated from five separate experiments for each group (n=29). *, P<0.05 from untreated neurons overexpressing ATF4WT by the Kruskal-Wallis test followed by Dunn's multiple comparisons test. […]

TRB3 mRNA = assay: Real-time PCR of TRB3 mRNA expression in cortical neurons; details: 10 mM HCA; ATF4-dependent (ATF4+/+ versus ATF4−/− neurons)
[2] = tested on: reduced glutathione (GSH) in cortical neurons; assay: Reduced glutathione (GSH) in cortical neurons by HPLC electrochemical detection; details: 10 mM HCA or 200 μM BSO, time course; for glutathione concentration, ATF4+/+ neurons: ATF4+/+ cortical neurons; for glutathione concentration, ATF4−/− neurons: ATF4−/− cortical neurons
Procedure: as §2, with “BSO. […]” for “BSO. At the indicated time points, cells were trypsinized, washed, and pelleted.”, “duplicate. […]” for “duplicate. Graph depicts mean±SD. (G) ATF4^+/+ cortical neurons were infected with GFP (♦), ATF4WT (▪), and ATF4ΔRK (▴) adenoviruses at an MOI of 100. At the indicated time points after infection, cells were trypsinized, washed, and pelleted.”, “duplicate.” for “duplicate. The value obtained from noninfected neurons was arbitrarily defined as 100%.”
Concentrations of reduced glutathione were measured using HPLC (PerkinElmer) equipped with an eight-channel coulometric array detector (ESA, Inc.). […] Glutathione concentrations of supernatant fractions were determined by injecting 5-μl aliquots onto an Ultrasphere 5 u, 4.6×250 mm, C18 column (Beckman Coulter), and eluting with a mobile phase of 50 mM NaH2PO4, 0.05 mM octane sulfonic acid, 1.5% acetonitrile (pH 2.62) at a flow rate of 1 ml/min. Peak areas were analyzed using software from ESA, Inc. Intracellular generation of ROS was determined by DCF. Cortical neurons were seeded in 96-well fluorescence plates. […] Cells were washed with HBSS and read on a plate reader (Fluorometer; MDS Analytical Technologies) at 485-nm excitation and 530-nm emission wavelengths.

ATF4 = ATF4 immunoblot of nuclear extracts from cultured cortical neurons; details: 10 mM HCA, 1 μg/ml arginase or 1 μM thapsigargin, versus vehicle control
Procedure: as §1

| Structure (SMILES) | glutathione concentration, ATF4+/+ neurons [2] | glutathione concentration, ATF4−/− neurons [2] | ATF4 protein expression/accumulation (ATF4) | also measured |
| --- | --- | --- | --- | --- |
| COc1ccc(O)c(C(C)(C)C)c1 [BHA, butylated hydroxyanisol] |  |  |  | neuronal viability in neurons overexpressing ATF4WT ([1]; ATF4+/+ cortical neurons infected with ATF4WT adenovirus, MOI 100, 10 μM BHA): significantly increased neuronal viability; protection against additional HCA toxicity in neurons overexpressing ATF4WT ([1]; ATF4WT adenovirus, MOI 100, 10 μM BHA plus 10 mM HCA): protected against the additional toxic effect of HCA treatment |
| NC(CCS(=O)(=O)O)C(=O)O (stereo not drawn) [HCA, homocysteate] | progressive loss of glutathione | markedly slower decline in glutathione concentration | increases the expression of ATF4 | TRB3 mRNA expression (TRB3 mRNA): induced |
| CCCCS(=N)(=O)CCC(N)C(=O)O (stereo not drawn) [BSO, buthionine sulfoximine] | decline in the concentration of glutathione | distinctly slower reduction of glutathione |  | cell viability, ATF4+/+ neurons ([1]; 200 μM BSO, 24 h, ATF4+/+ cortical neurons): resulted in cell death; cell viability, ATF4−/− neurons ([1]; 200 μM BSO, 24 h, ATF4−/− cortical neurons): essentially resistant |
| C/C=C(/C)C(=O)O[C@H]1C(C)=C2[C@H]([C@@H]1OC(=O)CCCCCCC)[C@@](C)(OC(C)=O)C[C@H](OC(=O)CCC)[C@@]1(O)[C@H]2OC(=O)[C@@]1(C)O [thapsigargin] |  |  | accumulation of ATF4 protein | protection from oxidative stress-induced neuronal cell death ([1]; 10 mM HCA, 24 h, 1 μg/ml arginase or 1 μM thapsigargin, MTT and live/dead assay): nearly complete protection from neuronal cell death |
